Patent US20260216294A1, “BETA 2-ADRENERGIC RECEPTOR AGONISTS FOR TREATMENT OR PREVENTION OF MUSCLE WASTING” (ATROGI AB, priority 2023, published 2026)

Experiments:
[1] = tested on: L6-myotubes; test: Measurement of intracellular cAMP levels in differentiated L6-myotubes (Biological Example 3); assay type: cell-based; settings: for Emax at 10 µM: 0.25 h
Procedure, shortened: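 Intracellular cAMP quantified by AlphaScreen after ethanol extraction and lysis of L6 myotubes. Cells were serum-starved overnight, then exposed for 15 min to compound (final 1×10^−5 M) or isoprenaline in IBMX-containing (1 mM) HBSS buffer, pH 7.4.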

[2] = tested on: L6-myotubes; test: Glucose uptake in differentiated L6-myotubes (Biological Example 2); assay type: cell-based; settings: for Emax at 10 µM: read-out: Biological example 2 (GU)
Procedure, shortened: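 Uptake was quantified as radioactivity in 0.2 M NaOH lysates after a 10 min pulse of 50 nM ^3H-2-deoxyglucose. The pulse followed two agonist exposures at 1×10^−5 M final (isoprenaline or test compound): 1 h 40 min, then 20 min in glucose-free medium after washing. L6 myotubes had been starved overnight in medium with 0.5% fatty-acid-free BSA.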

[3] = intracellular cAMP, compound at 10 μM relative to isoproterenol at 10 μM
[4] = glucose uptake, compound at 10 μM relative to isoproterenol at 10 μM
[5] = intracellular cAMP in differentiated L6-myotubes, compound at 10 μM, activity relative to isoproterenol at 10 μM
[6] = glucose uptake in differentiated L6-myotubes, compound at 10 μM, activity relative to isoproterenol at 10 μM

CCCCNC[C@H](O)c1cccc(N)c1F [Compound 90, (R)-1-(3-amino-2-fluorophenyl)-2-(butylamino)-1-ethanol]
Emax at 10 µM [1, 3]: < 25% | Emax at 10 µM [2, 4]: 50 to 75%

CC12CC(C1)[C@@H]([C@@H](O)c1cccc(N)c1F)N2 [Compound 242, (S)-{(S)-1-methyl-2-azabicyclo[[2.1.1]]hex-3-yl}(3-amino-2-fluorophenyl)methanol]
Emax at 10 µM [1, 5]: < 25% | Emax at 10 µM [2, 6]: 50 to 75%

CO[C@H]1CC[C@H](C[C@H]2CC[C@H]([C@@H](O)c3ccccc3F)N2)CC1 [Compound 338, (S)-[(2R,5R)-5-{[(1r,4R)-4-methoxycyclohexyl]methyl}-2-pyrrolidinyl](o-fluorophenyl)methanol]
Emax at 10 µM [1, 5]: < 25% | Emax at 10 µM [2, 6]: 50 to 75%

CC(C)(C[C@H]1CC[C@@H](NC(=O)OC(C)(C)C)CC1)NC[C@H](O)c1cccc(C(F)(F)F)n1 [Compound 450, (1R,4s)-4-(2-{(S)-2-hydroxy-2-[6-(trifluoromethyl)-2-pyridyl]]ethylamino}-2-methylpropyl)cyclohexyl 2-methyl-2-propanecarbamate]
Emax at 10 µM [1, 5]: < 25% | Emax at 10 µM [2, 6]: < 25%

C[C@H]1CC[C@@H]([C@H](O)c2ccccc2)N1 (racemic) [Compound 38, Racemic mixture of (R)-[(2S,5S)-5-methyl-2-pyrrolidinyl]phenylmeth anol and (S)-[(2R,5R)-5-methyl-2-pyrrolidinyl]] phenylmethanol]
Emax at 10 µM [1, 3]: < 25% | Emax at 10 µM [2, 4]: 25 to 50%

O[C@H](c1cccc(F)c1)[C@H]1CC[C@@H](Cc2ccc(Cl)cc2)N1 [Compound 392, (R)-{(2R,5S)-5-[(p-chlorophenyl)methyl]-2-pyrrolidinyl}(m-fluorophenyl)methanol]
Emax at 10 µM [1, 5]: < 25% | Emax at 10 µM [2, 6]: > 75%

CC(C)(C[C@H]1CC[C@H](N)CC1)NC[C@H](O)c1cncc(F)c1 [Compound 359, (R)-2-{1,1-dimethyl-2-[(1r,4R)-4-aminocyclohexyl]ethylamino}-1-(5-fluoro-3-pyridyl)-1-ethanol]
Emax at 10 µM [1, 5]: < 25% | Emax at 10 µM [2, 6]: > 75%

CC12CC(C1)[C@H]([C@H](O)c1cccc(Cl)c1)N2 [Compound 206]
Emax at 10 µM [1, 5]: < 25% | Emax at 10 µM [2, 6]: > 75%

CC(C)(C[C@H]1CC[C@H](NC(=O)C(F)(F)F)CC1)NC[C@H](O)c1cccc(F)c1 [Compound 433]
Biological example 3 (CAMP) [1, 5]: + (if it is between 50 and 25% it is denoted with +) | Biological example 2 (GU) [2, 6]: +++ (If a compound at 10 μM shows activity of more than 75% of that of isoproterenol at 10 μM, the activity is denoted with +++)

CC(C)(C)NC[C@H](O)c1cncc(Cl)c1 [Compound 138, (R)-2-(tert-butylamino)-1-(5-chloro-3-pyridyl)-1-ethanol]
Emax at 10 µM [1, 3]: > 75% | Emax at 10 µM [2, 4]: > 75%

CS(=O)(=O)N[C@H]1CC[C@@H](CNC[C@H](O)c2cccc(F)c2)CC1 [Compound 312, (R)-1-(m-fluorophenyl)-2-({[(1s,4S)-4-(mesylamino)cyclohexyl]methyl}amino)-1-ethanol]
Emax at 10 µM [1, 5]: < 25% | Emax at 10 µM [2, 6]: 50 to 75%

CC12CC(C1)[C@H]([C@H](O)c1cccc(N)c1F)N2 [Compound 241, (R)-{(R)-1-methyl-2-azabicyclo[2.1.1]hex-3-yl}(3-amino-2-fluorophenyl)methanol]
Emax at 10 µM [1, 5]: < 25% | Emax at 10 µM [2, 6]: > 75%

CC(C)(C)NC[C@H](O)c1ccc(Cl)cn1 [Compound 147, (S)-2-(tert-butylamino)-1-(5-chloro-2-pyridyl)-1-ethanol]
Emax at 10 µM [1, 3]: < 25% | Emax at 10 µM [2, 4]: 25 to 50%

O[C@H](c1cccc(F)c1)C12CCC(C/C=C/c3ccccc3)(CC1)N2 [Compound 534]
Emax at 10 µM [1, 5]: < 25% | Emax at 10 µM [2, 6]: > 75%

CO[C@H]1CCC[C@@H](C(C)(C)NC[C@H](O)c2cccc(F)c2)C1 [Compound 256, (R)-2-{1-[(1R,3S)-3-methoxycyclohexyl]-1-methylethylamino}-1-(m-fluorophenyl)-1-ethanol]
Emax at 10 µM [1, 5]: 25 to 50% | Emax at 10 µM [2, 6]: > 75%

CC12CCC([C@H](O)c3cccc(F)c3)(CC1)N2 [Compound 179, (R)-(m-fluorophenyl)(4-methyl-7-azabicyclo[[2.2.1]]hept-1-yl)methanol]
Emax at 10 µM [1, 3]: < 25% | Emax at 10 µM [2, 4]: 50 to 75%

COc1ccc(CCC23CCC([C@@H](O)c4cccc(F)c4)(CC2)N3)cc1 [Compound 539, (S)-(m-fluorophenyl){4-[2-(p-methoxyphenyl)ethyl]-7-azabicyclo[[2.2.1]]hept-1-yl}methanol]
Emax at 10 µM [1, 5]: < 25% | Emax at 10 µM [2, 6]: < 25%

CCC[C@@H]1CC[C@@H]([C@@H](O)c2cccc(F)c2)N1 [Compound 133, (S)-[(2,5R)-5-propyl-2-pyrrolidinyl](m-fluorophenyl)methanol]
Emax at 10 µM [1, 3]: < 25% | Emax at 10 µM [2, 4]: 50 to 75%

CC(=O)N[C@H]1CC[C@@H](CC(C)(C)NC[C@H](O)c2cccc(C(F)(F)F)n2)CC1 [Compound 462]
Emax at 10 µM [1, 5]: < 25% | Emax at 10 µM [2, 6]: 25 to 50%

CC12CC(C1)[C@H]([C@@H](O)c1cncc(F)c1)N2 [Compound 222, (S)-{(R)-1-methyl-2-azabicyclo[[2.1.1]]hex-3-yl}(5-fluoro-3-pyridyl)methanol]
Emax at 10 µM [1, 5]: < 25% | Emax at 10 µM [2, 6]: < 25%

O[C@@H](c1cccc(F)c1)C12CCC(COCc3ccc(Cl)cc3)(CC1)N2 [Compound 395, (S)-(4-{[(p-chlorophenyl)methoxy]methyl}-7-azabicyclo[[2.2.1]]hept-1-yl)(m-fluorophenyl)methanol]
Emax at 10 µM [1, 5]: < 25% | Emax at 10 µM [2, 6]: 50 to 75%

CC(=O)N[C@H]1CC[C@H](C(C)(C)NC[C@H](O)c2cccc(F)c2)CC1 [Compound 386, N-[(1R,4r)-4-{1-[(R)-2-(m-fluorophenyl)-2-hydroxyethylamino]-1-methylethyl}cyclohexyl] acetamide]
Emax at 10 µM [1, 5]: < 25% | Emax at 10 µM [2, 6]: > 75%

CC(C)(C[C@H]1CC[C@H](O)CC1)NC[C@H](O)c1cccc(F)c1 [Compound 300, (R)-2-{1,1-dimethyl-2-[(1r,4R)-4-hydroxycyclohexyl]ethylamino}-1-(m-fluorophenyl)-1-ethanol]
Emax at 10 µM [1, 5]: < 25% | Emax at 10 µM [2, 6]: > 75%

CS(=O)(=O)Nc1cccc(CC23CCC([C@@H](O)c4cccc(F)c4)(CC2)N3)c1 [Compound 514, (S)-(m-fluorophenyl)(4-{[m-(mesylamino)phenyl]methyl}-7-azabicyclo[[2.2.1]]hept-1-yl)methanol]
Emax at 10 µM [1, 5]: < 25% | Emax at 10 µM [2, 6]: 50 to 75%

CO[C@H]1CC[C@@H](CCNC[C@H](O)c2cccc(F)c2)CC1 [Compound 237, (R)-1-(m-fluorophenyl)-2-{2-[(1s,4S)-4-methoxycyclohexyl]ethylamino}-1-ethanol]
Emax at 10 µM [1, 5]: < 25% | Emax at 10 µM [2, 6]: 50 to 75%

CO[C@H]1CC[C@@H](C(C)(C)NC[C@H](O)c2cncc(F)c2)CC1 [Compound 252, (R)-1-(5-fluoro-3-pyridyl)-2-{1-methyl-1-[(1s,4S)-4-methoxycyclohexyl]ethylamino}-1-ethanol]
Emax at 10 µM [1, 5]: < 25% | Emax at 10 µM [2, 6]: < 25%

CCCCNC[C@H](O)c1ccc(O)cc1 [Compound 9, (R)-2-(butylamino)-1-(p-hydroxyphenyl)-1-ethanol]
Emax at 10 µM [1, 3]: < 25% | Emax at 10 µM [2, 4]: > 75%

O[C@@H](CNC[C@H]1CC[C@@H](O)CC1)c1cncc(F)c1 [Compound 269, (R)-1-(5-fluoro-3-pyridyl)-2-({[(1s,4S)-4-hydroxycyclohexyl]methyl}amino)-1-ethanol]
Emax at 10 µM [1, 5]: < 25% | Emax at 10 µM [2, 6]: 25 to 50%

C[C@H]1CC[C@@H]([C@@H](O)c2ccccc2)N1 (racemic) [Compound 39, Racemic mixture of (R)-[(2R,5R)-5-methyl-2-pyrrolidinyl] phenylmethanol and (S)-[(2S,5S)-5-methyl-2-pyrrolidinyl] phenylmethanol]
Emax at 10 µM [1, 3]: < 25% | Emax at 10 µM [2, 4]: 50 to 75%

CC(C)(C)NC[C@H](O)c1cncc(O)c1 [Compound 100, 5-[(R)-2-(tert-butylamino)-1-hydroxyethyl]-3-pyridinol]
Emax at 10 µM [1, 3]: < 25% | Emax at 10 µM [2, 4]: > 75%

CCC[C@H](C)NC[C@H](O)c1cccc(F)c1 [Compound 51]
Emax at 10 µM [1, 3]: < 25% | Emax at 10 µM [2, 4]: > 75%

CCCCNC[C@H](O)c1cnc(N)s1 [Compound 75, (S)-1-(2-amino-1,3-thiazol-5-yl)-2-(butylamino)-1-ethanol]
Emax at 10 µM [1, 3]: < 25% | Emax at 10 µM [2, 4]: 25 to 50%

CO[C@H]1CC[C@H](CCNC[C@H](O)c2cccc(F)c2)CC1 [Compound 224, (R)-1-(m-fluorophenyl)-2-{2-[(1r,4R)-4-methoxycyclohexyl]ethylamino}-1-ethanol]
Emax at 10 µM [1, 5]: < 25% | Emax at 10 µM [2, 6]: 25 to 50%

CCCCNC[C@H](O)c1csc(N)n1 [Compound 71, (S)-1-(2-amino-1,3-thiazol-4-yl)-2-(butylamino)-1-ethanol]
Emax at 10 µM [1, 3]: < 25% | Emax at 10 µM [2, 4]: 25 to 50%

Cn1ccc([C@@H](O)CNC(C)(C)C)cc1=O [Compound 98, 4-[(R)-2-(tert-butylamino)-1-hydroxyethyl]-1-methyl-2(1H)-pyridinone]
Emax at 10 µM [1, 3]: < 25% | Emax at 10 µM [2, 4]: > 75%

CC1(C)CC[C@H]([C@@H](O)c2ccc(F)cc2)N1 [Compound 172]
Emax at 10 µM [1, 3]: < 25% | Emax at 10 µM [2, 4]: < 25%

CO[C@H]1CC[C@H](C[C@H]2CC[C@H]([C@H](O)c3cccc(F)c3)N2)CC1 [Compound 335]
Emax at 10 µM [1, 5]: < 25% | Emax at 10 µM [2, 6]: > 75%
